Values of other authors in patent publication US20010037025A1, “New compounds, their preparation and use” (priority 1998, published 2001).

System: RAR
Settings: literature statement, Heyman et al. Cell 1992

In the case of CC1=C(/C=C/C(C)=C/C=C/C(C)=C/C(=O)O)C(C)(C)CCC1 [all-trans RA], the “activation of / selectivity for RAR” value is listed as “displays selectivity for RAR”.
